The subject of one data set is Glutamate, NMDA, Agonism. Put plainly: SafetyScreen44 232810. In kind it is binding, rat. The conditions noted are these: 10 μM; [3H]CGP-39653; cerebral cortex. The protocol:
(§1) A broad screen of 44 molecular targets (SafetyScreen44, Eurofins-Panlabs) for Ariadne were performed, which includes G protein-coupled receptors, steroid nuclear receptors, ion channels, neurotransmitter transporters, and metabolic and signaling enzymes. Only two molecular targets, 5-HT2A and 5-HT2B receptors, emerged above the positive hit threshold, defined as 50% displacement of standard radioligands by 10 uM concentration of Ariadne (FIG. 1b, and Table 1).
(§2) For species, “H”=human, “R”=rat. Test compound screened at all targets at concentration of 10 μM.

For another data set, the target named is T1, Phosphodiesterase PDE3A (Homo sapiens, UniProt Q14432).
T1 construct: Eurofins-Panlabs (contract screen) 152300
As to the kind of experiment: SafetyScreen44 152300. In kind it is biochemical. Conditions: 10 μM; FAM-cAMP; recombinant. The protocol:
as §1, §2

Another data set concerns the target T2, Muscarinic M3 (Homo sapiens, UniProt P20309).
T2 construct: purchased Eurofins-Panlabs (contract screen SafetyScreen44) assay ID 252810
As to the kind of experiment: SafetyScreen44 252810. The class given is binding. The conditions noted are these: 10 μM; [3H]N-Methylscopolamine; recombinant. The protocol:
as §1, §2

The target of a further data set is T3, Dopamine D2S (Homo sapiens, UniProt P14416).
T3 construct: Eurofins-Panlabs (contract screen) 219700
As to the kind of experiment: SafetyScreen44 219700. The class given is binding. Conditions: 10 μM; [3H]Spiperone; recombinant. The protocol: as §1, §2

For another data set, the target named is 5-HT2A (Homo sapiens, UniProt P28223). Put plainly: Radioligand displacement assay. The class given is binding.
The next data set addresses T4, 5-HT2C receptor (Homo sapiens, UniProt P28335).
T4 sequence (P28335 33-458): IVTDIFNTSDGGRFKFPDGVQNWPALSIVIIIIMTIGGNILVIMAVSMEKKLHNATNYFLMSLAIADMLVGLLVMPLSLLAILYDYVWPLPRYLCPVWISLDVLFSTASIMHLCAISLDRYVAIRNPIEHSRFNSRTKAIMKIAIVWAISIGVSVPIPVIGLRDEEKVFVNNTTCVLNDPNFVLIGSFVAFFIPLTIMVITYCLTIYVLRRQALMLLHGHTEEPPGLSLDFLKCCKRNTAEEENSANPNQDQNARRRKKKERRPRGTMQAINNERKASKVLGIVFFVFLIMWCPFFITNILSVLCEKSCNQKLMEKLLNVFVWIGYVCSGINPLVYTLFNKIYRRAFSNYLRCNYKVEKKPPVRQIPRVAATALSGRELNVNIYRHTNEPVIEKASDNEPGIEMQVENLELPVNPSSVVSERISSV
Put plainly: G protein (Gq) dissociation BRET assay. Conditions: for Emax: read-out: Emax, agonist activity.

A further data set has as its target 5-HT6 receptor (Homo sapiens, UniProt P50406). Put plainly: 5-HTome G protein activation BRET assay. The conditions noted are these: for agonist activity: 5-HTome screen.
The next data set addresses 5-HT4 receptor (Homo sapiens, UniProt Q13639). As to the kind of experiment: 5-HTome G protein activation BRET assay. The conditions noted are these: 5-HTome screen.
The target in another data set is T5, Adrenergic β2 (Homo sapiens, UniProt P07550).
T5 construct: Eurofins-Panlabs (contract screen) 204110
As to the kind of experiment: SafetyScreen44 204110. The class given is binding. The conditions noted are these: 10 μM; [3H]CGP-12177; recombinant. The protocol: as §1, §2

In data set [1] the target is T6, Potassium Channel hERG, [3H]Dofetilide (Homo sapiens, UniProt Q12809).
T6 construct: purchased Eurofins-Panlabs (contract screen SafetyScreen44) assay ID 265910
As to the kind of experiment: SafetyScreen44 265910. In kind it is binding. Conditions: 10 μM, recombinant. The protocol:
as §1, §2

The target in another data set is 5-HT1E receptor (Homo sapiens, UniProt P28566). As to the kind of experiment: 5-HTome G protein activation BRET assay.
In another data set the target is hSERT (Homo sapiens, UniProt P31645). Put plainly: SERT-mediated cell uptake assay (fluorescence uptake inhibition). The class given is cell-based.
In the next data set the target is 5-HT5a receptor (Homo sapiens, UniProt P47898). Put plainly: 5-HTome G protein activation BRET assay. The conditions noted are these: for agonist activity: 5-HTome screen.
Data set [2] has as its system auxilin knockout (KO) mice. Put plainly: Balance beam test in auxilin KO mouse model of Parkinson's Disease. In kind it is in vivo. Conditions: Aux-KO mice 9-12 months; 10 mg/kg intraperitoneal; 15 to 30 minutes after treatment. From the text: R-Ariadne ameliorates motor abnormalities in a mouse model of Parkinson's Disease. In the 1978 patent from the Bristol Laboratories, the inventors noted complete remission of Parkinson's symptoms in two patients (Partyka el al., U.S. Pat. No. 4,105,695, 1978). To address and examine these claims via reverse translation in mice, we used a novel model of PD based on auxilin knockout (KO) mice (Vidyadhara et al., 2022). Auxilin is a clathrin uncoating protein that participates in clathrin mediated endocytosis of synaptic vesicles (SV), enabling SV recycling and neurotransmission (Vidyadhara et al., 2022). Loss-of-function mutations in auxilin (DNAJC6/PARK19) cause PD. Auxilin KO mice display cardinal features of PD such as progressive motor deficits, nigral dopaminergic neuronal loss, α-synuclein pathology, and neuroinflammation. 9-12 month old Aux-KO mice were previously shown to respond to L-DOPA treatment, which ameliorated PD-like motor abnormalities (Vidyadhara et al., 2022). […] The balance beam test evaluates fine motor skills such as ability to walk on a raised narrow beam to reach a safety box, measured as a number of runs/minute and time taken to cross the beam (FIGS. 9-10). […]

The mark [3] stands for this setting: EC50, agonist activity, 5-HTome screen.

Sequence of 5-HT6 receptor (P50406 whole entry): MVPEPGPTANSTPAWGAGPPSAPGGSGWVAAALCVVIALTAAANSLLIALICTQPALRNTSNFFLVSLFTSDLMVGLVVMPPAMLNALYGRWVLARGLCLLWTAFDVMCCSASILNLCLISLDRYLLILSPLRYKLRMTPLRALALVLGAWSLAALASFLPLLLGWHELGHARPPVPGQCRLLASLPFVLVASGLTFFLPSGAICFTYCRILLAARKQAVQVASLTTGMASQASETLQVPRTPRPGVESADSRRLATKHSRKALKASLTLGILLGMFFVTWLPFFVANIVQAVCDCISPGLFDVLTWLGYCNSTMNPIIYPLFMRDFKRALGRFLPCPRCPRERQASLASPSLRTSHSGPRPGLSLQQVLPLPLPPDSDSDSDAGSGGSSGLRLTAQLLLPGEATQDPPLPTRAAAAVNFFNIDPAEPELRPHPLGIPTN
Sequence of 5-HT1E receptor (P28566 whole entry): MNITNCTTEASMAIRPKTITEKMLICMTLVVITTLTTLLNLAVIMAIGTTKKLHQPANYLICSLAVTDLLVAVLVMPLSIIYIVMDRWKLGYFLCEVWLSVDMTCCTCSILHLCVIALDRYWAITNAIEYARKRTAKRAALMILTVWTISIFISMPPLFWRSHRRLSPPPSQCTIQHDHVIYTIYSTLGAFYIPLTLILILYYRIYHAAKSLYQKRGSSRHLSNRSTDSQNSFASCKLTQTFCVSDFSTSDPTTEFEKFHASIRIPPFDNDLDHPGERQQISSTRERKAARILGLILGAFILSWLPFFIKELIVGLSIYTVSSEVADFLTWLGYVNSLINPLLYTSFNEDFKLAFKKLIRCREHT
Sequence of 5-HT5a receptor (P47898 whole entry): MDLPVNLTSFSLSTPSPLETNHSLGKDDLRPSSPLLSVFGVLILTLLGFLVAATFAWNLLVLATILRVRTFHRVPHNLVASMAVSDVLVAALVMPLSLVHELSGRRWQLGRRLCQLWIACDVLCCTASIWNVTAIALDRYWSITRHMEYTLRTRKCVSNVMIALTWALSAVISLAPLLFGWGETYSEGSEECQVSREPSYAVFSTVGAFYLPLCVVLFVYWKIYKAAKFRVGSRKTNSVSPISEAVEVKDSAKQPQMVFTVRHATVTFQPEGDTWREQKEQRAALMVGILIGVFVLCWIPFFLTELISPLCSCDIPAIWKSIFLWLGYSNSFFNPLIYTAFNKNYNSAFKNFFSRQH
Sequence of 5-HT2A (P28223 whole entry): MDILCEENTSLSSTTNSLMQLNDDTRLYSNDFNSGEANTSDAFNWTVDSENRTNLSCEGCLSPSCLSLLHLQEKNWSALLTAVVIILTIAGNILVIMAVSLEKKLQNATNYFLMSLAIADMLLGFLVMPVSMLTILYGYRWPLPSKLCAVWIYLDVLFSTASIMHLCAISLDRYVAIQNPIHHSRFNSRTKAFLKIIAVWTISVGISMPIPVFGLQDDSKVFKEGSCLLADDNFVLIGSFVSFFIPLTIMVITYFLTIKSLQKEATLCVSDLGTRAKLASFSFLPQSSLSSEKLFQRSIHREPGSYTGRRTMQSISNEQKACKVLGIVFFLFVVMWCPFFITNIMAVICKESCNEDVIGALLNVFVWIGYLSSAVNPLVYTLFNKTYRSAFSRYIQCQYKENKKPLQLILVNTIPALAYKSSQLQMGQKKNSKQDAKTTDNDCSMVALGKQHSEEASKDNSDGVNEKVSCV
Sequence of 5-HT4 receptor (Q13639 whole entry): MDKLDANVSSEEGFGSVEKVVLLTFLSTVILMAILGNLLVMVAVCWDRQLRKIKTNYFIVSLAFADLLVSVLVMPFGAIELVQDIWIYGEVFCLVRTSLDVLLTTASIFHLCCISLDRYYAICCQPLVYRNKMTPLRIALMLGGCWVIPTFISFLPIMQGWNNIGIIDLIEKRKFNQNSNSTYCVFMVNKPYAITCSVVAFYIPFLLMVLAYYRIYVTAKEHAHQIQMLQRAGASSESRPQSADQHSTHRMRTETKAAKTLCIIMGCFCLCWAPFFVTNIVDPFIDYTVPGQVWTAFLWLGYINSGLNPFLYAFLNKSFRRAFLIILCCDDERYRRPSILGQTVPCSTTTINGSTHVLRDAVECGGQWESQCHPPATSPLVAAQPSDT
T6 sequence (Q12809 whole entry): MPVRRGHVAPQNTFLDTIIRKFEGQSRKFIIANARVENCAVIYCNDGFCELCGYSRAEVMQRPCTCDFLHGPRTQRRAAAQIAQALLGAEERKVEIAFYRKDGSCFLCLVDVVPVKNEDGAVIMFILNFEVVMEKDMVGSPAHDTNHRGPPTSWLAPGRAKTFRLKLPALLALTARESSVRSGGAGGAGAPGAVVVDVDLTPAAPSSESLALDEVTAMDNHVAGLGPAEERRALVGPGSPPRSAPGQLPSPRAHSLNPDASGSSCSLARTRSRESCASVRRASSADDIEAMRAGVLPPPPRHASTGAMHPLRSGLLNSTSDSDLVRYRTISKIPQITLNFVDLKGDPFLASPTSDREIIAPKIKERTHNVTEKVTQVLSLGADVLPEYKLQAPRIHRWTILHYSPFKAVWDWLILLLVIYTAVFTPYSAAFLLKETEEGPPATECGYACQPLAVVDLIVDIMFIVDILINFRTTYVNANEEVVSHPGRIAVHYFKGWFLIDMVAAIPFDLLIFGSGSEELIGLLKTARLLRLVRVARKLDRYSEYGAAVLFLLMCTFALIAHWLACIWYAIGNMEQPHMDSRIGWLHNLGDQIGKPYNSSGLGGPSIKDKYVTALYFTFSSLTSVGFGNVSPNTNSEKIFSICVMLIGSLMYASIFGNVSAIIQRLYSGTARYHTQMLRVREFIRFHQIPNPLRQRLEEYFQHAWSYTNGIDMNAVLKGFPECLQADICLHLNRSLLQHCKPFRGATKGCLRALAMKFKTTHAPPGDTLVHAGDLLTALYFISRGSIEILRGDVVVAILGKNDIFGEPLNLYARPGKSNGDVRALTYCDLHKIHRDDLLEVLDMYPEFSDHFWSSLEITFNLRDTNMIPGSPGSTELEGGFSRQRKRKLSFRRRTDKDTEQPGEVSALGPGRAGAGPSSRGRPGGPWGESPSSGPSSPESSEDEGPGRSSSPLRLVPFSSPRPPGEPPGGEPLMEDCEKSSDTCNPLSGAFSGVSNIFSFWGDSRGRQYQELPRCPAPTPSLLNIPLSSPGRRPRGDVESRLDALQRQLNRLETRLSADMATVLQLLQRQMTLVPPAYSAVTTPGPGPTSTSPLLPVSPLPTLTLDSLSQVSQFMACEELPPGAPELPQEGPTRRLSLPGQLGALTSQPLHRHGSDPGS
Sequence of hSERT (P31645 whole entry): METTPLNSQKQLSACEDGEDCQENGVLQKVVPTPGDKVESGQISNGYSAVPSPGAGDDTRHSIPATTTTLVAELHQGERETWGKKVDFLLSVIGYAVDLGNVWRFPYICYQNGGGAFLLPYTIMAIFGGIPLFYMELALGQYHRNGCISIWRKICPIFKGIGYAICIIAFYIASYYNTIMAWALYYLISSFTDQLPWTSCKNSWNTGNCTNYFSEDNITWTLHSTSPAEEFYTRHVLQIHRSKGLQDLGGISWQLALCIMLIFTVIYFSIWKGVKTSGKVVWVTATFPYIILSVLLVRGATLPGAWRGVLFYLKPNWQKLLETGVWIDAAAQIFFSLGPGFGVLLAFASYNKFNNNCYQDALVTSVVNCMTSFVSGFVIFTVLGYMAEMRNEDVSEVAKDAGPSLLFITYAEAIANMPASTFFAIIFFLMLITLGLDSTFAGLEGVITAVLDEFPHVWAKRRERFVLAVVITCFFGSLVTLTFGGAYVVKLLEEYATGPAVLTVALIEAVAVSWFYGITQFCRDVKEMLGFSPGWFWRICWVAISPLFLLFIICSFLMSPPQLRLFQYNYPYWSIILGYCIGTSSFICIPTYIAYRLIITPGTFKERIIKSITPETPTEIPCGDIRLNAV
T3 sequence (P14416 1-414 isoform P14416-2): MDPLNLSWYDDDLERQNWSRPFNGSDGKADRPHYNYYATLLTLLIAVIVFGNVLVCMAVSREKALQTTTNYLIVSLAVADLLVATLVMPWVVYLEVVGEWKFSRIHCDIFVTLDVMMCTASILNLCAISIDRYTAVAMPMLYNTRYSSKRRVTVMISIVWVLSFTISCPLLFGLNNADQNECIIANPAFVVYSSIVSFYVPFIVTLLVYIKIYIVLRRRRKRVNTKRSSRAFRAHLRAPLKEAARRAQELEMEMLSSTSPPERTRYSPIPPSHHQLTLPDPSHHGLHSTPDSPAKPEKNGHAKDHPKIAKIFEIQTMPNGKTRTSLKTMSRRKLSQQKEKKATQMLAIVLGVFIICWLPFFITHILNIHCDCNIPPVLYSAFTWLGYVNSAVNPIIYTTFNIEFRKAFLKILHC
T5 sequence (P07550 whole entry): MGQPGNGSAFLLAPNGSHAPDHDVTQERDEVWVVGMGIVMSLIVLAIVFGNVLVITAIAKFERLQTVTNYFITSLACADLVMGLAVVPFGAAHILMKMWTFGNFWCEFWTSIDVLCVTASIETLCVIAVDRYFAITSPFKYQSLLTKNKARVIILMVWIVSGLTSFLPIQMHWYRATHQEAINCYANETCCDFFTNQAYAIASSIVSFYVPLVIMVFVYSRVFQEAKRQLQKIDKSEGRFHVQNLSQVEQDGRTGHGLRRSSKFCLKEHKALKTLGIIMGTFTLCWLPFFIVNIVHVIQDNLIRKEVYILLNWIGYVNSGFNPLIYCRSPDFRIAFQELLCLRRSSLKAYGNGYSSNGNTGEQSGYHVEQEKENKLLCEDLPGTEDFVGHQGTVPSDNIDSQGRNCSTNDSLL
Procedure for 5-HT1E receptor: (§3) All BRET assays were conducted using BRET2 in HEK293T cells (ATCC CRL-11268; mycoplasma-free), which were subcultured in high-glucose DMEM (VWR) supplemented with 10% FBS (Life Technologies).
(§4) Constructs in G protein-dissociation BRET assays were derived from the codon-optimized Tango pcDNA3.1 library (Addgene) with V2tail/TEV/tTA encoding regions deleted to yield “de-Tango” constructs. […] All Gα-Rluc8, Beta, and GFP2-γ constructs were derived from the TRUPATH pcDNA5/FRT/TO library (Addgene).
(§5) Approximately 48 hours before assays, cells were transfected using a reverse transfection method and plated in 1% dFBS at an approximate density of 15,000 cells per well into poly-L-lysine-coated 384-well white assay plates (Grenier Bio-One). For G protein-dissociation assays, cells were transfected in a 1:1:1:1 ratio of receptor: Gα-Rluc8: Beta: GFP2-γ constructs. […] All transfections were prepared in Opti-MEM (Invitrogen) and used a 3:1 ratio of TransIT-2020 (Mirus) uL:ug total DNA.
(§6) On the day of the assay, plates were decanted and 20 uL of drug buffer per well (1×HBSS, 20 mM HEPES, pH 7.4) was added using a Multidrop (ThermoFisher Scientific), and plates were allowed to equilibrate at 37° C. in a humidified incubator before receiving drug stimulation. Drug dilutions of all compounds were performed in McCorvy buffer (1×HBSS, 20 mM HEPES, pH 7.4, supplemented with 0.3% BSA fatty acid free (GoldBio), and 0.03% ascorbic acid). […] Before reading, addition of coelenterazine 400a (5 uM final concentration; Nanolight Technology) was performed by the [sequence]. Immediately after, plates were read at 400 nm Rluc and fluorescent GFP2 emission at 510 nm for BRET2 at 0.8 second per well using a PheraStarFSX (BMB Lab Tech).
(§7) The BRET ratios of 510/400 luminescence were calculated per well and were plotted as a function of drug concentration using Graphpad Prism 5 or 9 (Graphpad Software Inc., San Diego, CA). Data were normalized to % positive control stimulation and analyzed using nonlinear regression “log(agonist) vs. response” to yield Emax and EC50 parameter estimates.
Procedure for 5-HT2A: Therefore, an orthogonal assay measuring calcium flux was also performed for the 5-HT2 receptors (Klein et al., 2020).
Procedure for 5-HT2C receptor: as §3, §4, §5
On the day of the assay, plates were decanted and 20 uL of drug buffer per well (1×HBSS, 20 mM HEPES, pH 7.4) was added using a Multidrop (ThermoFisher Scientific), and plates were allowed to equilibrate at 37° C. in a humidified incubator before receiving drug stimulation. Drug dilutions of all compounds were performed in McCorvy buffer (1×HBSS, 20 mM HEPES, pH 7.4, supplemented with 0.3% BSA fatty acid free (GoldBio), and 0.03% ascorbic acid). […] Next, plates were incubated at 37° C. in a humidified incubator for 60 minutes or specified time point. Before reading, addition of coelenterazine 400a (5 uM final concentration; Nanolight Technology) was performed by the [sequence]. Immediately after, plates were read at 400 nm Rluc and fluorescent GFP2 emission at 510 nm for BRET2 at 0.8 second per well using a PheraStarFSX (BMB Lab Tech).
as §7
Procedure for 5-HT4 receptor: as §3
Constructs in G protein-dissociation BRET assays were derived from the codon-optimized Tango pcDNA3.1 library (Addgene) with V2tail/TEV/tTA encoding regions deleted to yield “de-Tango” constructs. […] All Gα-Rluc8, Beta, and GFP2-γ constructs were derived from the TRUPATH pcDNA5/FRT/TO library (Addgene). […]
On the day of the assay, plates were decanted and 20 uL of drug buffer per well (1×HBSS, 20 mM HEPES, pH 7.4) was added using a Multidrop (ThermoFisher Scientific), and plates were allowed to equilibrate at 37° C. in a humidified incubator before receiving drug stimulation. […] Before reading, addition of coelenterazine 400a (5 uM final concentration; Nanolight Technology) was performed by the [sequence]. Immediately after, plates were read at 400 nm Rluc and fluorescent GFP2 emission at 510 nm for BRET2 at 0.8 second per well using a PheraStarFSX (BMB Lab Tech).
The BRET ratios of 510/400 luminescence were calculated per well and were plotted as a function of drug concentration using Graphpad Prism 5 or 9 (Graphpad Software Inc., San Diego, CA). […]
Procedure for 5-HT5a receptor: as §3, §4, §5, §6, §7
Procedure for 5-HT6 receptor: as §3, §4, §5, §6, §7

As for `CCC(N)Cc1cc(OC)c(C)cc1OC` (racemic) [Compound 32, 1-(2,5-dimethoxy-4-methylphenyl)butan-2-amine], the “% Response” value in the data set on Glutamate, NMDA, Agonism is given as −5%; on Phosphodiesterase PDE3A, −4%; at Muscarinic M3, −11%; on Dopamine D2S, 1%; at Adrenergic β2, 22%; in [1], 18%. The Ki on 5-HT2A amounted to 120 nM. Moreover, the 50% effective concentration (EC50) at 5-HT2C receptor (setting [3]) was less than 1000 nM; on 5-HT6 receptor, greater than 10000 nM; on 5-HT5a receptor, greater than 10000 nM. At 5-HT2C receptor, the Emax is greater than 70%. Also, the agonist activity entry at 5-HT6 receptor, at 5-HT4 receptor and at 5-HT5a receptor was “Little to no agonist activity” throughout. Moreover, at 5-HT1E receptor (also 5-HT1F), the “selectivity of 5-HT2 over 5-HT1E and 5-HT1F receptors” value is 0.5-1 log. Also, the half-inhibitory concentration (IC50) against hSERT was greater than 50000 nM.
With `CC[C@@H](N)Cc1cc(OC)c(C)cc1OC` [(R)-Ariadne], in [2], the “number of balance beam runs per minute” value is “significantly higher and comparable to WT mice”. Moreover, the Ki at 5-HT2A amounted to 53 nM. In addition, the EC50 on 5-HT2C receptor (EC50, Gq dissociation, Gq dissociation BRET) is 249 nM; on 5-HT2C receptor (setting [3]) it was less than 1000 nM; at 5-HT1E receptor, roughly 200 nM. The Emax on 5-HT2C receptor and at 5-HT1E receptor was greater than 70% each time. The agonist activity entry on 5-HT6 receptor, on 5-HT4 receptor and at 5-HT5a receptor was “Little to no agonist activity” in each case.
